In PMC4685510, “A Cell Biologist’s Field Guide to Aurora Kinase Inhibitors” (Frontiers in Oncology, 2015):

What was measured:
Assay in all cases: biochemical
Assay type in all cases: biochemical
[1] = target: T1, 363 human kinases (including Aurora A/B/C) (Homo sapiens, UniProt Q86SG6); conditions: NEK8; for remaining activity at 0.1 µM: 100 nM; for remaining activity at 0.1 µM / remaining activity at 0.5 µM: read-out: % Enzyme Activity (relative to DMSO controls)
T1 sequence (Q86SG6 1-692): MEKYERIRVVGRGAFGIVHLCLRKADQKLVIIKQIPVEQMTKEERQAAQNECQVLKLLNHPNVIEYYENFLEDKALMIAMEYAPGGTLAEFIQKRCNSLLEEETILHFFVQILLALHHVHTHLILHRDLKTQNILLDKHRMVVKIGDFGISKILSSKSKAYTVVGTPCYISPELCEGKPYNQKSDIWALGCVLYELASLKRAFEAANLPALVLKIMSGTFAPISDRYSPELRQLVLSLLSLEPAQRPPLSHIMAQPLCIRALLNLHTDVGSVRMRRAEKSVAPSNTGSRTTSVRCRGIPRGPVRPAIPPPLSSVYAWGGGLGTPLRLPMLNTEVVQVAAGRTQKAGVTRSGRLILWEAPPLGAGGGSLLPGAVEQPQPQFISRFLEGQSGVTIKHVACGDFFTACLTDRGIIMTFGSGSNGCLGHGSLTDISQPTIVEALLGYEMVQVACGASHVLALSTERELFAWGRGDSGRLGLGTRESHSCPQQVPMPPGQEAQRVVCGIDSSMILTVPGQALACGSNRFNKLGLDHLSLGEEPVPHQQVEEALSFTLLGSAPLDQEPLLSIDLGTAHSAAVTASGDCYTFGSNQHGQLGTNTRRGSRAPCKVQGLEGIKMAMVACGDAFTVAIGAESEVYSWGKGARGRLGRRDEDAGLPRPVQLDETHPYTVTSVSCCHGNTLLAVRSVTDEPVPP
Excerpt: (§1) However, the Aurora A/B selectivity ratios derived from our in vitro and in vivo data can be compared to prioritize inhibitors.

[2] = target: 363 human kinases (including Aurora A/B/C) (Homo sapiens, UniProt Q13177); conditions: PAK2; for remaining activity at 0.1 µM: 100 nM; for remaining activity at 0.1 µM / remaining activity at 0.5 µM: read-out: % Enzyme Activity (relative to DMSO controls)
Excerpt: as §1

[3] = target: T2, 363 human kinases (including Aurora A/B/C) (Homo sapiens, UniProt O95835); conditions: LATS1; for remaining activity at 0.1 µM: 100 nM; for remaining activity at 0.1 µM / remaining activity at 0.5 µM: read-out: % Enzyme Activity (relative to DMSO controls)
T2 sequence (O95835 1-1130): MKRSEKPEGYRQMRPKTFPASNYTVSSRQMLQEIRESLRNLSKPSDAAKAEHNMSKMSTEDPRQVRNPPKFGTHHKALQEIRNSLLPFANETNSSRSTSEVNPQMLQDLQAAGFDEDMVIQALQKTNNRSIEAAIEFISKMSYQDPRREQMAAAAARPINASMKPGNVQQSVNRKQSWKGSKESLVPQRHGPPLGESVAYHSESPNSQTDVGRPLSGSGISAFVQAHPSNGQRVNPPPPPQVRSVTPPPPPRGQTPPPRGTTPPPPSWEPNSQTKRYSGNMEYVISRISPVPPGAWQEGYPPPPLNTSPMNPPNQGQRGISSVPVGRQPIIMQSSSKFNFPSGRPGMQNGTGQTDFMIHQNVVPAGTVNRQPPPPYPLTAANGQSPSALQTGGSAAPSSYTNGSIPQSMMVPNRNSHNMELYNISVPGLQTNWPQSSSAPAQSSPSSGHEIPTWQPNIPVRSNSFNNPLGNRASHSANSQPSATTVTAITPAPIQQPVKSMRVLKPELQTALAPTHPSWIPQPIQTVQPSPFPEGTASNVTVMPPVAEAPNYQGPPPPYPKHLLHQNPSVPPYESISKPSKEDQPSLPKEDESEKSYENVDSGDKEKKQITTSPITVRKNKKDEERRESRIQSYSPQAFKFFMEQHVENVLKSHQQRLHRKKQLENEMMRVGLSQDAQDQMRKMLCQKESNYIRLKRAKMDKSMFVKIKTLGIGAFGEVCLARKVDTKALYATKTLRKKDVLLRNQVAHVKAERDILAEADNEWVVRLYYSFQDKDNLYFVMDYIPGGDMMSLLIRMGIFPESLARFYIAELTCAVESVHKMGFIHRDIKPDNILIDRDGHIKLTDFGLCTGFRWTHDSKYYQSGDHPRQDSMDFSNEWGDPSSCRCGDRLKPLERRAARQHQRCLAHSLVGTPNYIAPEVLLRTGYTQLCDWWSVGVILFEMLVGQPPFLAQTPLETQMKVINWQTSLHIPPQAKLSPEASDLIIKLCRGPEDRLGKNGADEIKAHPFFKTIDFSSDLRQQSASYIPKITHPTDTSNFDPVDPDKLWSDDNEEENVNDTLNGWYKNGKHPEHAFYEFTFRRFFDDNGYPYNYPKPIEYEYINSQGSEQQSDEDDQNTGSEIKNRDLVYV
Excerpt: as §1

[4] = target: T3, 363 human kinases (including Aurora A/B/C) (Homo sapiens, UniProt O60285); conditions: ARK5/NUAK1, [ATP] 30 µM; for remaining activity at 0.1 µM: 100 nM; for remaining activity at 0.1 µM / remaining activity at 0.5 µM: read-out: % Enzyme Activity (relative to DMSO controls)
T3 sequence (O60285 1-661): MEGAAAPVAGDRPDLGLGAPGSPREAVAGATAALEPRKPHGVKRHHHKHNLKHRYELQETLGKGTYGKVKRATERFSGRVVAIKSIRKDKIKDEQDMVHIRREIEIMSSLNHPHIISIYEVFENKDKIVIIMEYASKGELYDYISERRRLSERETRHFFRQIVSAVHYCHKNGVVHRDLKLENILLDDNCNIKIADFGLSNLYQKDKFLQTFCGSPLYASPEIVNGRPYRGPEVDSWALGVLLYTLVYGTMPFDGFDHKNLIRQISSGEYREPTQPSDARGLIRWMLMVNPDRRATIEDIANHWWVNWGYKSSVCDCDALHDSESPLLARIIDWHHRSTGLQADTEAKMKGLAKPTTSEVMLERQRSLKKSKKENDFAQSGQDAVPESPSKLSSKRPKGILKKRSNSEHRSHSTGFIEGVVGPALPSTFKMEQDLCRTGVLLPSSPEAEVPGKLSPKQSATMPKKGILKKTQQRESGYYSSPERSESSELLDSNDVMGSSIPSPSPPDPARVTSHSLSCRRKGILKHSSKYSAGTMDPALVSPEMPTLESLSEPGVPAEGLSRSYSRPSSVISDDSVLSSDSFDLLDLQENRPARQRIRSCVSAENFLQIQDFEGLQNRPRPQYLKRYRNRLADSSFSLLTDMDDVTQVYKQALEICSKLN
Excerpt: as §1

[5] = target: 363 human kinases (including Aurora A/B/C) (Homo sapiens, UniProt Q13233); conditions: MEKK1; for remaining activity at 0.1 µM: 100 nM; for remaining activity at 0.1 µM / remaining activity at 0.5 µM: read-out: % Enzyme Activity (relative to DMSO controls)
Excerpt: as §1

[6] = target: 363 human kinases (including Aurora A/B/C) (Homo sapiens, UniProt Q15418); conditions: RSK1; for remaining activity at 0.1 µM: 100 nM; for remaining activity at 0.1 µM / remaining activity at 0.5 µM: read-out: % Enzyme Activity (relative to DMSO controls)
Excerpt: as §1

[7] = target: 363 human kinases (including Aurora A/B/C) (Homo sapiens, UniProt P15056); conditions: BRAF, [ATP] 10 µM; for remaining activity at 0.1 µM: 100 nM; for remaining activity at 0.1 µM / remaining activity at 0.5 µM: read-out: % Enzyme Activity (relative to DMSO controls)
363 human kinases (including Aurora A/B/C) (Homo sapiens, UniProt P15056), sequence (P15056 whole entry): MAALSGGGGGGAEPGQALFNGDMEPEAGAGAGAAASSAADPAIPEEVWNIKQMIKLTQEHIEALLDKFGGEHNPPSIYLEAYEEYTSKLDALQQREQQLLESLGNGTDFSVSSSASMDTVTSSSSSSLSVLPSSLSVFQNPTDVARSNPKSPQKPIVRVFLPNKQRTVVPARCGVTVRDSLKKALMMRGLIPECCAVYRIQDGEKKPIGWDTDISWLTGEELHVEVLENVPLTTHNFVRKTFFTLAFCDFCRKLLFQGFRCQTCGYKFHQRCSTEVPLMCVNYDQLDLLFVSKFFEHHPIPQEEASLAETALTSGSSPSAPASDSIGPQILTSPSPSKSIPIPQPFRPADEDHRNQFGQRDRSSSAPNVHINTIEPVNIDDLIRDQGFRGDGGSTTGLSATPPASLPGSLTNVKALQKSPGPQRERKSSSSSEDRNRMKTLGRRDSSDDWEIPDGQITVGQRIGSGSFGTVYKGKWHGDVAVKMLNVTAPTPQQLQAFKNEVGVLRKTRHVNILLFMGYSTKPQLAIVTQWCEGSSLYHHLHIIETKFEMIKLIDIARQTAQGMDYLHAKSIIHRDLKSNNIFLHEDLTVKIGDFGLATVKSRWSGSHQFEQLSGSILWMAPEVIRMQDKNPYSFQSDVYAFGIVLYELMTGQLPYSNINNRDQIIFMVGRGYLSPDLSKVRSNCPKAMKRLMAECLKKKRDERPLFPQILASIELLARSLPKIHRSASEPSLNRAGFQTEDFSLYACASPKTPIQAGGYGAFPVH
Excerpt: as §1

363 human kinases (including Aurora A/B/C) (Homo sapiens, UniProt Q13233), sequence (Q13233 whole entry): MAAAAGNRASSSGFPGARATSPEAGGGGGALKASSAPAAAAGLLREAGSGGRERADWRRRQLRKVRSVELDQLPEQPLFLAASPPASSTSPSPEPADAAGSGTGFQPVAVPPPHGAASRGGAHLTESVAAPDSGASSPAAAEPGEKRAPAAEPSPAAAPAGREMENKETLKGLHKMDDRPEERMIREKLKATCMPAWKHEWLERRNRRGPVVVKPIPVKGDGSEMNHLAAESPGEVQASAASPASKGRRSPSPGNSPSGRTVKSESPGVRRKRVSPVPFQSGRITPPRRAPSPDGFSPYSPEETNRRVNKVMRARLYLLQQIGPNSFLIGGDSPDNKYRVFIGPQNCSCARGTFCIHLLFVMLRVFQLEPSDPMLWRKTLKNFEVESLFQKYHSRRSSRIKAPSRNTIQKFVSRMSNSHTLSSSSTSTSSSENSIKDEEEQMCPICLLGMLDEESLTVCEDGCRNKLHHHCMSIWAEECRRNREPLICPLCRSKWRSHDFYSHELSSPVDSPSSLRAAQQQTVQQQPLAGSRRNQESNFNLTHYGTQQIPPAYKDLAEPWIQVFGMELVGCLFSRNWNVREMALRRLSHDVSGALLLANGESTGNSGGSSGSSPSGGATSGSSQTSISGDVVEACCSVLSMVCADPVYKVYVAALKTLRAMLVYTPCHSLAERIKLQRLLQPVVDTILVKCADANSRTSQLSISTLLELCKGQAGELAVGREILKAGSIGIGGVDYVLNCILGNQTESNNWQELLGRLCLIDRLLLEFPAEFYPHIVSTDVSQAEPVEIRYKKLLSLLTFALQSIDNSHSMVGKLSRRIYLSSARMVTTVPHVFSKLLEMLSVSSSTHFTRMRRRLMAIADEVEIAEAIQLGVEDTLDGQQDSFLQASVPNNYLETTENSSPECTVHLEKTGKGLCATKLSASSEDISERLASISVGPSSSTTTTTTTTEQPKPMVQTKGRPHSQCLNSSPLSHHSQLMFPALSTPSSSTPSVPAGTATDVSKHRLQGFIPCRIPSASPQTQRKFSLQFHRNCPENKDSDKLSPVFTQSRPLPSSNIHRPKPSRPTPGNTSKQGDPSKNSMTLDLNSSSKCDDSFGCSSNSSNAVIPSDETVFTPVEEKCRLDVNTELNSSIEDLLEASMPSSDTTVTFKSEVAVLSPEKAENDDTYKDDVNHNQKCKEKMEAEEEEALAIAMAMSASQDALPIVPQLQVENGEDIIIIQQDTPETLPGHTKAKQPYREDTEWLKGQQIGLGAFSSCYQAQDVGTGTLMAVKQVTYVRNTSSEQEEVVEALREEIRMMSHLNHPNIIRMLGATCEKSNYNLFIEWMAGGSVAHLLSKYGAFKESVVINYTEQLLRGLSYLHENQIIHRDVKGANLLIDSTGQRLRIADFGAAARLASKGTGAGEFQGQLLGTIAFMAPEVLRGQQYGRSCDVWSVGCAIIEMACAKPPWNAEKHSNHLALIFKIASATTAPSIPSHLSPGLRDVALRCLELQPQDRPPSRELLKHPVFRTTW
363 human kinases (including Aurora A/B/C) (Homo sapiens, UniProt Q15418), sequence (Q15418 whole entry): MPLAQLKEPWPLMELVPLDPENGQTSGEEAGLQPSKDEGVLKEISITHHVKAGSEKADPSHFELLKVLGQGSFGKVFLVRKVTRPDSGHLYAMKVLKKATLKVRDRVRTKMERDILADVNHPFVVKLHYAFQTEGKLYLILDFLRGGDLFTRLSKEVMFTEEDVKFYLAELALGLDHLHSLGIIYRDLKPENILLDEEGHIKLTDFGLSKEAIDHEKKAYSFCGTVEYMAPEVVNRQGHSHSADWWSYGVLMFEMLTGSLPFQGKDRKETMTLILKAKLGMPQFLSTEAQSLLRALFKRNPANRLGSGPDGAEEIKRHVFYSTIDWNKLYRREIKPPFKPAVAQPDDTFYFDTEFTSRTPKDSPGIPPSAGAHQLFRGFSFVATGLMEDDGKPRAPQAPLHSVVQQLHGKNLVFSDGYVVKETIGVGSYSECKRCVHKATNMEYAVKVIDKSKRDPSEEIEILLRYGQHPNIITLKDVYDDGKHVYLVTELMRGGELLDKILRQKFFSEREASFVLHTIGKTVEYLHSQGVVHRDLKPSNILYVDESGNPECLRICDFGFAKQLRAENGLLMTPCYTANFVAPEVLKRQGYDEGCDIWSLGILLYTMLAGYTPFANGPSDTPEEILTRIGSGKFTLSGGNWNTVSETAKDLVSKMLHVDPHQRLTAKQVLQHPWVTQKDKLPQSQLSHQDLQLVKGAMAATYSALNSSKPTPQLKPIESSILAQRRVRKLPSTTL
363 human kinases (including Aurora A/B/C) (Homo sapiens, UniProt Q13177), sequence (Q13177 whole entry): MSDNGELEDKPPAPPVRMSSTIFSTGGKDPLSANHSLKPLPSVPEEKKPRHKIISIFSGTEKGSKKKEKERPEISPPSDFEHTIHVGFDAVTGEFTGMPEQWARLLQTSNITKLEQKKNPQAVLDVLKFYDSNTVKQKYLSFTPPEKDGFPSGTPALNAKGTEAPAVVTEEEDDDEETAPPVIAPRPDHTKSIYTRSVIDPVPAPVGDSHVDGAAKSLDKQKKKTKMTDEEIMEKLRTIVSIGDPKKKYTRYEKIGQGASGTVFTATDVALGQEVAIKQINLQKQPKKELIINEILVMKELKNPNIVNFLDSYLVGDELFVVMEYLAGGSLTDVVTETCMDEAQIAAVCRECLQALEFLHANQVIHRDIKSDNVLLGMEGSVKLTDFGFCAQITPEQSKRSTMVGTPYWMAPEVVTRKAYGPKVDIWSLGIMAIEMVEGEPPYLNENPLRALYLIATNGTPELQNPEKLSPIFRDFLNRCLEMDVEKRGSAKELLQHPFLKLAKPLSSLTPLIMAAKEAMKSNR

Structure (SMILES) | remaining activity at 0.1 µM [1] | remaining activity at 0.1 µM [2] | remaining activity at 0.1 µM [3] | remaining activity at 0.1 µM [4] | remaining activity at 0.1 µM [5] | remaining activity at 0.1 µM [6] | remaining activity at 0.1 µM [7] | remaining activity at 0.5 µM ([1]; 500 nM) | remaining activity at 0.5 µM ([2]; 500 nM) | remaining activity at 0.5 µM ([3]; 500 nM) | remaining activity at 0.5 µM ([4]; 500 nM) | remaining activity at 0.5 µM ([5]; 500 nM) | remaining activity at 0.5 µM ([6]; 500 nM) | remaining activity at 0.5 µM ([7]; 500 nM) | further results
CCn1cc(-c2ccnc3[nH]c(-c4cccc(CN(C)C)c4)cc23)c(-c2ccc(NC(=O)N(C)C)cc2)n1 [GSK1070916] | 97.8% | 106% | 97.5% | 92.5% | 91.8% | 90% | 97.1% | – | – | – | – | – | – | – | –
O=C(O)[C@]1(Cc2cccc(Nc3nccs3)n2)CC[C@@H](Oc2cccc(Cl)c2F)CC1 [MK-5108] | 81.2% | 97.1% | 98.5% | 79.6% | 104% | 99.1% | 103% | 82.2% | 98.2% | 94.1% | 42.7% | 87% | 91.2% | 94.7% | –
O=C(c1cccc(Cl)c1F)N1CCN(Cc2cccc(Nc3nccs3)n2)CC1 [MK-8745] | – | – | – | – | – | – | – | 91.6% | 105% | 96.8% | 76.7% | 101% | 95.8% | 96.1% | % Enzyme Activity (relative to DMSO controls) ([1]; 500 nM): 91.43%; % Enzyme Activity (relative to DMSO controls) ([2]; 500 nM): 102.92%; % Enzyme Activity (relative to DMSO controls) ([3]; 500 nM): 96.46%; % Enzyme Activity (relative to DMSO controls) ([4]; 500 nM): 73.30%; % Enzyme Activity (relative to DMSO controls) ([5]; 500 nM): 100.17%; % Enzyme Activity (relative to DMSO controls) ([6]; 500 nM): 93.60%; % Enzyme Activity (relative to DMSO controls) ([7]; 500 nM): 94.88%
